By inhibition is commonly meant the percentage by which the read-out fell short of the control. In general, IC50 refers to the point on the concentration scale where inhibition reaches its midpoint.

Molecules are shown by their SMILES. Some results are limits rather than exact numbers.

We go through 24 molecules from patent US8519149B2, “Tricyclic compounds as mPGES-1 inhibitors” (Glenmark Pharmaceuticals S.A., priority 2010, dated 2013).

The experiment has as its target T1, Recombinant human mPGES-1 (Homo sapiens, UniProt O14684).
T1 sequence (O14684 1-152): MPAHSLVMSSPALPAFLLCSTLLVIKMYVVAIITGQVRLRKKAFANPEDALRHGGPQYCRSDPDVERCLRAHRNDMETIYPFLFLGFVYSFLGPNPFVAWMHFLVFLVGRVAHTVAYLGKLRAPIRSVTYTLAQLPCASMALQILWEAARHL
In words: In-vitro mPGES-1 enzyme inhibition assay (PGE2 formation from PGH2, HTRF detection). The class given is biochemical. The settings on record: for inhibition at 1 µM: 1 μM test compound, read-out: Percentage inhibition at 1 μM; for inhibition at 1 µM / inhibition at 10 µM: recombinant human mPGES-1 microsomal fraction; for inhibition at 10 µM: 10 μM test compound, read-out: Percentage inhibition at 10 μM; for IC50: class symbols, selected examples. In outline:
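IC50 values were derived by nonlinear regression of percent inhibition relative to enzyme reactions run without inhibitor. PGE2 formed from PGH2 with GSH was quantified by antibody-based HTRF after stannous chloride quench. Enzyme source was human mPGES-1 microsomes at 40-60 μg/mL protein; DMSO 0.5% (v/v).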
In general terms: Time-resolved FRET reads energy transfer from a long-lived donor to a nearby acceptor.

`CC1(C)Cc2c(c(C(=O)Nc3ccc(Br)cc3)cc3nc(Nc4ccccc4Cl)[nH]c23)O1` [Example-78, N-(4-Bromophenyl)-2-[(2-chlorophenyl)amino]-7,7-dimethyl-7,8-dihydro-1H-furo[3,2-e]benzimidazole-5-carboxamide]: the inhibition at 1 µM was found to be 88.5%, the inhibition at 10 µM was 96.4% and the IC50 was < 50 nM.

Take `Cc1cccc(Cl)c1Nc1nc2cc(C(=O)Nc3ccc(C(F)(F)F)cn3)c3c(c2[nH]1)CC(C)(C)O3` [Example-124, 2-[(2-Chloro-6-methylphenyl)amino]-7,7-dimethyl-N-[5-(trifluoromethyl)pyridin-2-yl]-7,8-dihydro-1H-furo[3,2-e]benzimidazole-5-carboxamide]: the inhibition at 1 µM is 97.1%, the inhibition at 10 µM was found to be 100% and the IC50 is < 50 nM.

For the molecule `Cc1cc2c(o1)c(C(=O)NCC1CC1)cc1nc(Nc3c(Cl)cccc3Cl)[nH]c12` [Example-57, N-(Cyclopropylmethyl)-2-[(2,6-dichlorophenyl)amino]-7-methyl-1H-furo[3,2-e]benzimidazole-5-carboxamide], the inhibition at 1 µM is 61.7% and the inhibition at 10 µM was found to be 88.2%.

For the molecule `CC1(C)Cc2c(c(C(=O)NCCc3ccc(Cl)cc3)cc3nc(Nc4c(Cl)cccc4Cl)[nH]c23)O1` [Example-83, N-[2-(4-Chlorophenyl)ethyl]-2-[(2,6-dichlorophenyl)amino]-7,7-dimethyl-7,8-dihydro-1H-furo[3,2-e]benzimidazole-5-carboxamide], the inhibition at 1 µM was determined as 87.7%, the inhibition at 10 µM amounted to 89.3% and the IC50 was < 50 nM.

For `CC1(C)Cc2c(c(C(=O)Nc3ccc(F)cc3C#N)cc3nc(Nc4c(F)cccc4Cl)[nH]c23)O1` [Example-105, 2-[(2-Chloro-6-fluorophenyl)amino]-N-(2-cyano-4-fluorophenyl)-7,7-dimethyl-7,8-dihydro-1H-furo[3,2-e]benzimidazole-5-carboxamide], the inhibition at 1 µM was determined as 91.2%, the inhibition at 10 µM was determined as 95.5% and the IC50 was > 100 nM.

As to `CC1(C)Cc2c(c(C(=O)Nc3cccc(C(F)(F)F)c3F)cc3nc(Nc4c(F)cccc4Cl)[nH]c23)O1` [Example-168, 2-((2-Chloro-6-fluorophenyl)amino)-N-(2-fluoro-3-(trifluoromethyl)phenyl)-7,7-dimethyl-7,8-dihydro-1H-benzofuro[4,5-d]imidazole-5-carboxamide], the inhibition at 1 µM came out at 92.5%, the inhibition at 10 µM is 97.7% and the IC50 was < 50 nM.

As to `CC1(C)Cc2c(c(C(=O)Nc3ccc(Cl)cc3)cc3nc(Nc4ccccc4Cl)[nH]c23)O1` [Example-18, N-(4-Chlorophenyl)-2-[(2-chlorophenyl)amino]-7,7-dimethyl-7,8-dihydro-1H-furo[3,2-e]benzimidazole-5-carboxamide], the inhibition at 1 µM came out at 98.4%, the inhibition at 10 µM amounted to 99.8% and the IC50 is < 50 nM.

With `Cc1cc2c(o1)c(C(=O)NCCC(C)C)cc1nc(Nc3c(Cl)cncc3Cl)[nH]c12` [Example-50, 2-[(3,5-Dichloropyridin-4-yl)amino]-7-methyl-N-(3-methylbutyl)-1H-furo[3,2-e]benzimidazole-5-carboxamide], the inhibition at 1 µM was determined as 89.2% and the inhibition at 10 µM worked out at 99.3%.

`CC1(C)Cc2c(c(C(=O)Nc3ccc(C(F)(F)F)cc3)cc3nc(Nc4ccccc4C(C)(C)C)[nH]c23)O1` [Example-102, 2-[(2-tert-Butylphenyl)amino]-7,7-dimethyl-N-[4-(trifluoromethyl)phenyl]-7,8-dihydro-1H-furo[3,2-e]benzimidazole-5-carboxamide]: the inhibition at 1 µM worked out at 19.3% and the inhibition at 10 µM was found to be 22.8%.

`Cc1cc2c(o1)c(C(=O)NCc1ccc(F)cc1)cc1nc(Nc3c(Cl)cccc3Cl)[nH]c12` [Example-35, 2-[(2,6-Dichlorophenyl)amino]-N-(4-fluorobenzyl)-7-methyl-1H-furo[3,2-e]benzimidazole-5-carboxamide]: the inhibition at 1 µM worked out at 89.3% and the inhibition at 10 µM was 99.1%.

`C[C@@H](NC(=O)c1cc2nc(Nc3c(Cl)cncc3Cl)[nH]c2c2c1OC(C)(C)C2)C(C)(C)C` [Example-6]: the inhibition at 1 µM was 93.4%, the inhibition at 10 µM was determined as 95.5% and the concentration for half-maximal inhibition (IC50) is < 50 nM.

Regarding `Cn1c(Nc2c(F)cccc2Cl)nc2cc(C(=O)Nc3ccc(C(F)(F)F)nc3)c3c(c21)CC(C)(C)O3` [Example-153, 2-((2-Chloro-6-fluorophenyl)amino)-1,7,7-trimethyl-N-(6-(trifluoromethyl)pyridin-3-yl)-7,8-dihydro-1H-benzofuro[4,5-d]imidazole-5-carboxamide], the inhibition at 1 µM is 100%, the inhibition at 10 µM stood at 99.9% and the IC50 is < 50 nM.

`Cc1csc(NC(=O)c2cc3nc(Nc4c(F)cccc4Cl)[nH]c3c3c2OC(C)(C)C3)n1` [Example-54, 2-[(2-Chloro-6-fluorophenyl)amino]-7,7-dimethyl-N-(4-methyl-1,3-thiazol-2-yl)-7,8-dihydro-1H-furo[3,2-e]benzimidazole-5-carboxamide]: the inhibition at 1 µM came to 79.2% and the inhibition at 10 µM is 92.8%.

On to `COc1cc(OC)cc(-c2noc(-c3cc4nc(Nc5c(Cl)cccc5Cl)[nH]c4c4c3OC(C)(C)C4)n2)c1` [Example-162, N-(2,6-Dichlorophenyl)-5-(3-(3,5-dimethoxyphenyl)-1,2,4-oxadiazol-5-yl)-7,7-dimethyl-7,8-dihydro-1H-benzofuro[4,5-d]imidazol-2-amine], for which the inhibition at 1 µM is 62.3% and the inhibition at 10 µM was 80.8%.

Turning to `Cc1nnc(NC(=O)c2cc3nc(Nc4c(Cl)cccc4Cl)[nH]c3c3c2OC(C)(C)C3)s1` [Example-38, 2-[(2,6-Dichlorophenyl)amino]-7,7-dimethyl-N-(5-methyl-1,3,4-thiadiazol-2-yl)-7,8-dihydro-1H-furo[3,2-e]benzimidazole-5-carboxamide], the inhibition at 1 µM was found to be 74.5% and the inhibition at 10 µM was found to be 81.5%.

Take `CCCCCCNC(=O)c1cc2nc(Nc3c(Cl)cccc3Cl)[nH]c2c2nc(C)oc12` [Example-181, 7-[(2,6-Dichlorophenyl)amino]-N-hexyl-2-methyl-8H-imidazo[4,5-e][1,3]benzoxazole-4-carboxamide]: the inhibition at 1 µM came to 89.5%, the inhibition at 10 µM was 93.9% and the IC50 was < 50 nM.

Turning to `Cc1ccc(Nc2nc3cc(C(=O)Nc4ccccc4C(F)(F)F)c4c(c3[nH]2)CC(C)(C)O4)c(C)n1` [Example-106], the inhibition at 1 µM came out at 9.35% and the inhibition at 10 µM is 46.2%.

`CC1(C)Cc2c(c(C(=O)Nc3ccc(Cl)cn3)cc3nc(Nc4c(F)cccc4Cl)[nH]c23)O1` [Example-121, 2-[(2-Chloro-6-fluorophenyl)amino]-N-(5-chloropyridin-2-yl)-7,7-dimethyl-7,8-dihydro-1H-furo[3,2-e]benzimidazole-5-carboxamide]: the inhibition at 1 µM came out at 100% and the inhibition at 10 µM stood at 100%.

With `Cc1cc2c(o1)c(C(=O)NCc1ccc(F)cc1)cc1nc(Nc3c(Cl)cncc3Cl)[nH]c12` [Example-22, 2-[(3,5-Dichloropyridin-4-yl)amino]-N-(4-fluorobenzyl)-7-methyl-1H-furo[3,2-e]benzimidazole-5-carboxamide], the inhibition at 1 µM stood at 85.8% and the inhibition at 10 µM is 98.8%.

Take `Cc1cc2c(o1)c(C(=O)NC(C)C(C)(C)C)cc1nc(Nc3c(Cl)cncc3Cl)[nH]c12` (stereo not shown) [Example-23, 2-[(3,5-Dichloropyridin-4-yl)amino]-N-(3,3-dimethylbutan-2-yl)-7-methyl-1H-furo[3,2-e]benzimidazole-5-carboxamide]: the inhibition at 1 µM came to 94%, the inhibition at 10 µM was determined as 97.1% and the concentration for half-maximal inhibition (IC50) is < 50 nM.

Take `CC1(C)Cc2c(c(C(=O)Nc3ccc(C(F)(F)F)cn3)cc3nc(Nc4c(F)cccc4Cl)[nH]c23)O1` [Example-122, 2-[(2-Chloro-6-fluorophenyl)amino]-7,7-dimethyl-N-[5-(trifluoromethyl)pyridin-2-yl]-7,8-dihydro-1H-furo[3,2-e]benzimidazole-5-carboxamide]: the inhibition at 1 µM came out at 96%, the inhibition at 10 µM was found to be 98.1% and the IC50 was < 50 nM.

With `Cc1ccc(NC(=O)c2cc3nc(Nc4c(F)cccc4Cl)[nH]c3c3c2OC(C)(C)C3)c(F)c1` [Example-128, 2-((2-Chloro-6-fluorophenyl)amino)-N-(2-fluoro-4-methylphenyl)-7,7-dimethyl-7,8-dihydro-1H-benzofuro[4,5-d]imidazole-5-carboxamide], the inhibition at 1 µM was 90.5%, the inhibition at 10 µM was determined as 94% and the 50% inhibitory concentration (IC50) is < 50 nM.

For `Cc1nc2c(o1)c(C(=O)NC1CCC(F)(F)CC1)cc1nc(Nc3c(Cl)cccc3Cl)[nH]c12` [Example-189, 7-[(2,6-Dichlorophenyl)amino]-N-(4,4-difluorocyclohexyl)-2-methyl-8H-imidazo[4,5-e][1,3]benzoxazole-4-carboxamide], the inhibition at 1 µM is 53.9% and the inhibition at 10 µM came out at 91.1%.

In the case of `CC1(C)Cc2c(c(C(=O)Nc3ncc(Cl)cc3F)cc3nc(Nc4c(F)cccc4Cl)[nH]c23)O1` [Example-126, N-(5-Chloro-3-fluoropyridin-2-yl)-2-((2-chloro-6-fluorophenyl)amino)-7,7-dimethyl-7,8-dihydro-1H-benzofuro[4,5-d]imidazole-5-carboxamide], the inhibition at 1 µM came to 96.6%, the inhibition at 10 µM turned out to be 97.7% and the IC50 was < 50 nM.
